Test results from the NIST ThermoML archive (doi:10.1016/j.fluid.2017.09.007).
± gives the expanded uncertainty stated by the source.

Columns and labels:
[1] = Crystal; DTA
[2] = Molar enthalpy of transition or fusion; conditions: Crystal; DSC

- Normal melting temperature [1]: 221.60 ± 1.1 °C
- Molar enthalpy of transition or fusion [2]: 9.15 ± 0.311 kcal/mol
Structure (SMILES): C[C@]12CCC(=O)C=C1CC[C@@H]1[C@@H]2[C@@H](O)C[C@@]2(C)[C@H]1CC[C@]2(O)C(=O)CO [11β,17α,21-trihydroxypregn-4-ene-3,20-dione]
